Experimental data published in ChEMBL document CHEMBL4732119, “Design, synthesis and pharmacological evaluation of bicyclic and tetracyclic pyridopyrimidinone analogues as new KRAS inhibitors” (Eur J Med Chem, 2021).

Key:
[1] = test system: A549; assay: Antiproliferative activity against human A549 cells harboring KRAS G12S mutant assessed as growth inhibition at 0.1 uM measured after 72 hrs by SRB assay relative to control; assay type: functional; conditions: for inhibition of growth at 0.1 µM: Homo sapiens, A549, read-out: GI
[2] = test system: MIA PaCa-2; assay: Antiproliferative activity against human MIA PaCa-2 cells harboring KRAS G12C mutant assessed as growth inhibition at 0.1 uM measured after 72 hrs by CCK8 assay relative to control; assay type: functional; conditions: for inhibition of growth at 0.1 µM: Homo sapiens, MIA PaCa-2, read-out: GI
[3] = test system: A549; assay: Antiproliferative activity against human A549 cells harboring KRAS G12S mutant assessed as growth inhibition at 10 uM measured after 72 hrs by SRB assay relative to control; assay type: functional; conditions: for inhibition of growth at 10 µM: Homo sapiens, A549, read-out: GI
[4] = test system: MIA PaCa-2; assay: Antiproliferative activity against human MIA PaCa-2 cells harboring KRAS G12C mutant assessed as growth inhibition at 1 uM measured after 72 hrs by CCK8 assay relative to control; assay type: functional; conditions: for inhibition of growth at 1 µM: Homo sapiens, MIA PaCa-2, read-out: GI
[5] = test system: A549; assay: Antiproliferative activity against human A549 cells harboring KRAS G12S mutant assessed as growth inhibition at 1 uM measured after 72 hrs by SRB assay relative to control; assay type: functional; conditions: for inhibition of growth at 1 µM: Homo sapiens, A549, read-out: GI
[6] = test system: MIA PaCa-2; assay: Antiproliferative activity against human MIA PaCa-2 cells harboring KRAS G12C mutant assessed as growth inhibition at 10 uM measured after 72 hrs by CCK8 assay relative to control; assay type: functional; conditions: for inhibition of growth at 10 µM: Homo sapiens, MIA PaCa-2, read-out: GI
[7] = test system: MIA PaCa-2; assay: Antiproliferative activity against human MIA PaCa-2 cells harboring KRAS G12C mutant assessed as growth inhibition measured after 72 hrs by CCK8 assay; assay type: functional, cell-based
[8] = test system: A549; assay: Antiproliferative activity against human A549 cells harboring KRAS G12S mutant assessed as growth inhibition measured after 72 hrs by SRB assay; assay type: functional, cell-based; conditions: A549, 72 h
[9] = test system: NCI-H1975; assay: Antiproliferative activity against human NCI-H1975 cells harboring wild-type KRAS assessed as growth inhibition measured after 72 hrs by SRB assay; assay type: functional, cell-based; conditions: NCI-H1975, 72 h
[10] = target: GTPase KRas (Homo sapiens, UniProt P01116); assay: Inhibition of recombinant human N-terminal His-tagged KRAS (2 to 185 residues) expressed in baculovirus infected Sf9 insect cells using GTP as substrate measured after 2 hrs by GTPase-glo assay
[11] = Inhibition of recombinant human N-terminal polyHis-tagged KRAS isoform 2B G12C mutant (Thr2 to Cys185 residues) expressed in Escherichia coli using GTP as substrate measured after 2 hrs by GTPase-glo assay
[12] = test system: NCI-H358; assay: Antiproliferative activity against human NCI-H358 cells harboring KRAS G12C mutant assessed as growth inhibition measured after 72 hrs by SRB assay; assay type: functional, cell-based
[13] = test system: GTPase KRas (Homo sapiens), P01116 [G12C]; assay: Inhibition of KRAS G12C mutant in human NCI-H358 cells assessed as reduction in AKT phosphorylation measured after 6 hrs by Western blot analysis; assay type: cell-based; conditions: dose 10-1000 nM
[14] = test system: GTPase KRas (Homo sapiens), P01116 [G12C]; conditions: NCI-H358, dose 10-1000 nM, time 6.0 hrs
[15] = test system: GTPase KRas (Homo sapiens), P01116 [G12C]; assay: Inhibition of KRAS G12C mutant in human NCI-H358 cells assessed as reduction in ERK phosphorylation measured after 6 hrs by Western blot analysis; assay type: cell-based; conditions: dose 10-1000 nM

| Compound | IC50 ([7]; Homo sapiens, MIA PaCa-2, 72 h) | IC50 [11] | inhibition of growth at 0.1 µM [1] | inhibition of growth at 0.1 µM [2] | inhibition of growth at 10 µM [3] | inhibition of growth at 1 µM [4] | inhibition of growth at 1 µM [5] | inhibition of growth at 10 µM [6] | also measured |
| --- | --- | --- | --- | --- | --- | --- | --- | --- | --- |
| C=CC(=O)N1CCN(c2nc(=O)n(-c3c(C)ccnc3C(C)C)c3nc4c(cc23)oc2cccc(O)c24)[C@@H](C)C1 | – | – | 32.8% | 1.41% | 23.1% | 1.71% | 35.3% | 9.78% | – |
| CC#CC(=O)N1CCN(c2nc(=O)n(-c3c(C)ccnc3C(C)C)c3cc(-c4c(O)cccc4F)ncc23)[C@@H](C)C1 | – | – | 3.69% | 20.2% | 56.7% | 19.7% | 3.57% | 41.8% | – |
| C=CC(=O)N1CCN(c2nc(=O)n(-c3c(C(C)C)ncnc3C(C)C)c3c(Cl)c(-c4c(O)cccc4F)ncc23)[C@@H](C)C1 | – | > 10 µM | – | – | – | – | – | – | IC50 [10]: > 10 µM |
| Cc1ccnc(C(C)C)c1-n1c(=O)nc(N2CCN(C(=O)/C=C/CN(C)C)C[C@@H]2C)c2cc3oc4cccc(F)c4c3nc21 | – | – | 7.85% | 1.88% | 2.64% | 14.9% | 2.99% | 32% | – |
| C=CC(=O)N1CCN(c2nc(=O)n(-c3c(C)ccnc3C(C)C)c3nc4c(cc23)oc2ccc(C)cc24)[C@@H](C)C1 | > 10 µM | – | 2.95% | 40.6% | 27.8% | 42.7% | 1.74% | 57.8% | – |
| C=CC(=O)N1CCN(c2nc(=O)n(-c3c(C)ccnc3C(C)C)c3nc(-c4c(O)cccc4F)ncc23)[C@@H](C)C1 | – | – | 5.83% | 5.39% | 23% | 8.56% | -5.05% | 49% | – |
| CC#CC(=O)N1CCN(c2nc(=O)n(-c3c(C)ccnc3C(C)C)c3nc4c(cc23)oc2cccc(F)c24)[C@@H](C)C1 | – | – | -1.01% | 0.49% | 22.3% | 14.2% | 4.36% | 27.3% | – |
| C=CC(=O)N1CCN(c2nc(=O)n(-c3c(C)ccnc3C(C)C)c3c(F)c(-c4c(O)cccc4F)ncc23)[C@@H](C)C1 (stereo in doubt; 26a) [listing 2 of 2 here] | – | – | – | – | – | – | – | – | inhibition [13]: Dose-dependent effect; inhibition [14]: Dose-dependent effect; inhibition [15]: Dose-dependent effect |
| C=CC(=O)N1CCN(c2nc(=O)n(-c3c(C)ccnc3C(C)C)c3nc4c(cc23)oc2cccc(F)c24)[C@@H](C)C1 | – | – | 7.06% | 35.3% | 28.6% | 19.3% | 2.22% | 48.7% | – |
| C=C(C(=O)N1CCN(c2nc(=O)n(-c3c(C)ccnc3C(C)C)c3cc(-c4c(O)cccc4F)ncc23)[C@@H](C)C1)C(F)(F)F | – | – | 2.29% | 6.23% | 91.6% | 18.1% | 6.65% | 85.5% | – |
| C=CC(=O)N1CCN(c2nc(=O)n(-c3c(C(C)C)cccc3C(C)C)c3c(F)c(-c4c(O)cccc4F)ncc23)[C@@H](C)C1 | – | > 10 µM | – | – | – | – | – | – | IC50 [10]: > 10 µM |
| C=CC(=O)N1C2CCC1CN(c1nc(=O)n(-c3c(C)ccnc3C(C)C)c3nc4c(cc13)oc1cccc(F)c14)C2 | > 10 µM | – | 4.85% | 8.58% | 35.7% | 14.5% | 9.32% | 53.2% | – |
| C=CC(=O)N1CCN(c2nc(=O)n(-c3c(C)ccnc3C(C)C)c3cc(-c4c(O)cccc4F)ncc23)[C@@H](C)C1 | – | – | 9.11% | 4.05% | 52.7% | 24.8% | 7.53% | 64.2% | – |
| C=C(F)C(=O)N1CCN(c2nc(=O)n(-c3c(C)ccnc3C(C)C)c3cc(-c4c(O)cccc4F)ncc23)[C@@H](C)C1 | – | – | 5.24% | 25.1% | 19% | 29.2% | 5.95% | 35% | – |
| C=CC(=O)N1CCN(c2nc(=O)n(-c3c(C(C)C)ncnc3C(C)C)c3c(F)c(-c4c(O)cccc4F)ncc23)[C@@H](C)C1 | 0.43 µM | 1.81 µM | – | – | – | – | – | – | IC50 [8]: 3.27 µM; IC50 [9]: 8.99 µM; IC50 [10]: > 10 µM; IC50 ([12]; Homo sapiens, NCI-H358, 72 h): 0.26 µM |
| C=CC(=O)N1CCN(c2ncnc3c(F)c(-c4c(O)cccc4F)c(Cl)cc23)CC1 | 1.06 µM | – | 8.27% | 21% | 31.2% | 34.9% | 6.3% | 62.5% | – |

Second part, led by results:

| IC50 ([7]; Homo sapiens, MIA PaCa-2, 72 h) | IC50 [11] | Compound | inhibition of growth at 0.1 µM [1] | inhibition of growth at 0.1 µM [2] | inhibition of growth at 10 µM [3] | inhibition of growth at 1 µM [4] | inhibition of growth at 1 µM [5] | inhibition of growth at 10 µM [6] | also measured |
| --- | --- | --- | --- | --- | --- | --- | --- | --- | --- |
| > 10 µM | – | C=CC(=O)N1CCN(c2nc(=O)n(-c3c(C)ccnc3C(C)C)c3nc4c(cc23)oc2ccc(F)cc24)[C@@H](C)C1 | 2.52% | 15.9% | 24.6% | 35.4% | 6.97% | 52.8% | – |
| – | 1.87 µM | C=CC(=O)N1CCN(c2nc(=O)n(-c3c(C)ccnc3C(C)C)c3c(F)c(-c4c(O)cccc4F)ncc23)[C@@H](C)C1 (stereo in doubt; 26a) [listing 1 of 2 here] | – | – | – | – | – | – | IC50 [8]: > 10 µM; IC50 [9]: > 10 µM; IC50 [10]: > 10 µM; IC50 ([7]; mia paca-2): 0.53 µM; IC50 ([12]; nci-h358): 0.26 µM |
| 0.029 µM | 1.27 µM | C=CC(=O)N1CCN(c2nc(=O)n(-c3c(C)ccnc3C(C)C)c3nc(-c4c(O)cccc4F)c(F)cc23)[C@@H](C)C1 [SOTORASIB] | – | – | – | – | – | – | growth inhibition (GI) [1]: 4.13%; IC50 [8]: > 10 µM; IC50 [9]: > 10 µM; growth inhibition (GI) [2]: 49.49%; growth inhibition (GI) [3]: 24.09%; growth inhibition (GI) [4]: 64.63%; IC50 ([12]; Homo sapiens, NCI-H358, 72 h): < 0.016 µM; growth inhibition (GI) [5]: 5.81%; growth inhibition (GI) [6]: 59.49% |
| – | 1.79 µM | C=CC(=O)N1CCN(c2nc(=O)n(-c3c(C)ccnc3C(C)C)c3c(F)c(-c4c(O)cccc4F)ncc23)[C@@H](C)C1 (stereo in doubt; 26aa) | – | – | – | – | – | – | IC50 ([10]; sf9): > 10 µM; IC50 ([7]; mia paca-2): 0.6 µM; IC50 ([12]; nci-h358): 0.3 µM |
| 7.97 µM | – | C=CC(=O)N1CCN(c2nc(=O)n(-c3c(C)ccnc3C(C)C)c3nc4c(cc23)oc2cc(F)c(F)cc24)[C@@H](C)C1 | -5.33% | 32.3% | 21.1% | 6.35% | 7.03% | 75.2% | – |
| 2.7 µM | 2.4 µM | C=CC(=O)N1CCN(c2nc(=O)n(-c3c(C)ccnc3C(C)C)c3c(Cl)c(-c4c(O)cccc4F)ncc23)[C@@H](C)C1 | – | – | – | – | – | – | IC50 [8]: > 10 µM; IC50 [9]: > 10 µM; IC50 [10]: > 10 µM; IC50 ([12]; Homo sapiens, NCI-H358, 72 h): 1.21 µM |
| – | 3.57 µM | C=CC(=O)N1CCN(c2nc(=O)n(-c3c(C)ccnc3C(C)C)c3c(F)c(-c4c(O)cccc4F)ncc23)[C@@H](C)C1 (stereo in doubt; 26ab) | – | – | – | – | – | – | IC50 ([10]; sf9): > 10 µM; IC50 ([7]; mia paca-2): 1.5 µM; IC50 ([12]; nci-h358): 0.88 µM |
